Among the data in US6514953B1, “Calcium (3S) tetrahydro-3-furanyl(1S,2R)-3-[[(4-aminophenyl)sulfonyl](isobutyl)amino]-1-benzyl-2-(phosphonooxy)propylcarbamate” (SmithKline Beecham Corporation, priority 1998, dated 2003) are solubility values, retold here.

Molecules are shown by their SMILES. ≈ marks a conversion by molar mass, not a printed value.

This data set is described as follows: physchem.

The solubility is the dissolved amount per volume that the medium holds. High values mean a readily soluble substance, low ones a poorly soluble substance. As to `CC(C)CN(C[C@@H](OP(=O)([O-])[O-])[C@H](Cc1ccccc1)NC(=O)O[C@H]1CCOC1)S(=O)(=O)c1ccc(N)cc1.[Ca+2]` [compound of formula (I), calcium (3S) tetrahydro-3-furanyl (1S,2R)-3-[[(4-aminophenyl)sulfonyl](isobutyl)amino]-1-benzyl-2-(phosphonooxy)propylcarbamate], the solubility was 3200 µg/mL (pH 1.47, simulated gastric fluid); 61100 µg/mL (pH 3.27, aqueous buffer); 9410 µg/mL (pH 4.11, aqueous buffer); 3200 µg/mL (pH 5.02, aqueous buffer); 531 µg/mL (pH 6.27, aqueous buffer).
`CC(C)CN(C[C@@H](O)[C@H](Cc1ccccc1)NC(=O)O[C@H]1CCOC1)S(=O)(=O)c1ccc(N)cc1` (relative stereo) [amprenavir, [3S-[3R*(1R*,2S*)]]-[3-[[(4-aminophenyl)sulfonyl](2-methyl-propyl)amino]-2-hydroxy-1-phenylmethyl)propyl]-tetrahydro-3-furanyl ester, reference compound] gave a solubility (0.1N HCl, pH 1, simulated gastric fluid) of 290 µg/mL (≈ 574 µM) and a solubility (aqueous solution, pH 6.3, aqueous buffer) of 95 µg/mL (≈ 188 µM).
